Measurements from US10954214B2 (Janssen Pharmaceutica NV, priority 2016, dated 2021).
pIC50: −log10 of the molar value.

Columns and labels:
[1] = tested on: IL10 secretion by TMD8 ABC-DLBCL cells; experiment: Human IL10 Mesoscale assay (TMD-8); type: cell-based; conditions: Homo sapiens, TMD8; TMD-8 cells, 24 h
Procedure, shortened: (§1)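 After 24 h at 37 °C with test compounds (15 μM down to 58.6 nM, 9 twofold steps, 0.3% DMSO), IL6 and IL10 secreted by 100,000 OCI-LY3 or TMD8 cells per well were measured in supernatants with a Mesoscale immunoassay. Data were scaled between DMSO wells (high) and RN486 treatment (low).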

TMD8 cells = experiment: 4-day proliferation assay, TMD8; type: cell-based; conditions: Homo sapiens, 96 h, 4 days incubation, CellTiterGLO, read-out: Anti-proliferation: TMD-8 IC50
Procedure, shortened: (§2)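 Each line was plated at 10,000 cells per well for linear growth, with no beta-mercaptoethanol during the assay. OCI-Ly3 cells were below passage 10.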

OCI-Ly3 cells = experiment: 4-day proliferation assay, OCI-Ly3; type: cell-based, human; conditions: Homo sapiens, 96 h, 4 days incubation, CellTiterGLO, read-out: Anti-proliferation: OCI-LY-3 IC50
Procedure, shortened: as §2

[2] = target: full-length MALT1 protein (Strep-MALT1(1-824)-His) (Homo sapiens (Human), UniProt Q9UDY8); experiment: MALT1 Biochemical Protease Assay (Ac-LRSR-AMC substrate); conditions: 10 nM FL MALT1, 200 μM Ac-LRSR-AMC, 4 h at RT; read-out: MALT1_Biochemical activity (Ac-LRSR-amc) IC50
Sequence of full-length MALT1 protein (Strep-MALT1(1-824)-His) (Q9UDY8 whole entry): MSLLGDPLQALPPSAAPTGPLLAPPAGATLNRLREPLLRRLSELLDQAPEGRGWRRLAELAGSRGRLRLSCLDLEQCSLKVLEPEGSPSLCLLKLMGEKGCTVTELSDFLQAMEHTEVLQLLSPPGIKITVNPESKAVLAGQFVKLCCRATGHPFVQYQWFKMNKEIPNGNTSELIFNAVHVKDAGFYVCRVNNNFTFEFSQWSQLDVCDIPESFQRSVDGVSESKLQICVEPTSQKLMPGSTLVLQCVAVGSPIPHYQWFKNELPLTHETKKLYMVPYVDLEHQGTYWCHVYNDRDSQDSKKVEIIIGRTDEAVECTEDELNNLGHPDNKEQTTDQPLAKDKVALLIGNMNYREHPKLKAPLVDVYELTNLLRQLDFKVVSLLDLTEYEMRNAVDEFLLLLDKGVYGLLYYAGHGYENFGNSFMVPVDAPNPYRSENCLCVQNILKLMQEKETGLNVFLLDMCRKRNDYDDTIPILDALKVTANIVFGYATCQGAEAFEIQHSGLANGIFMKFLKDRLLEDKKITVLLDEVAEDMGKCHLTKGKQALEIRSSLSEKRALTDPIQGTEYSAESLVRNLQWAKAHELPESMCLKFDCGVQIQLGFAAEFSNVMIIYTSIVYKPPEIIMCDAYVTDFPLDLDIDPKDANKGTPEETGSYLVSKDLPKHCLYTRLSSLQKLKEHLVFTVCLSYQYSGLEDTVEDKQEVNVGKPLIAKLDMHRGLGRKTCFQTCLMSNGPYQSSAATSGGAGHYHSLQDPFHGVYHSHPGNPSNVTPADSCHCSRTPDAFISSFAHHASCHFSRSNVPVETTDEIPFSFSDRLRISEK
Procedure, shortened: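 Fluorescence from AMC release off the quenched LRSR substrate was read after a 4 h reaction at RT. Values were normalised to no-enzyme and uninhibited controls and fitted for IC50 and Hill coefficient.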

[3] = tested on: IL6 secretion by TMD8 ABC-DLBCL cells; experiment: Human IL6 Mesoscale assay (TMD-8); type: cell-based; conditions: Homo sapiens, TMD8; TMD-8 cells, 24 h
Procedure, shortened: as §1

Row | SMILES | pIC50 [1] | pIC50 (TMD8 cells) | pIC50 (OCI-Ly3 cells) | pIC50 [2] | pIC50 [3]
1 | Cc1nc(-n2nccn2)c(Cl)cc1NC(=O)c1cnn(-c2cncc3c(F)cccc23)c1C(F)(F)F [Cpd 123, N-(5-chloro-2-methyl-6-(2H-1,2,3-triazol-2-yl)pyridin-3-yl)-1-(8-fluoroisoquinolin-4-yl)-5-(trifluoromethyl)-1H-pyrazole-4-carboxamide] | 6.74 | 6.30 | 6.40 | 7.89 | 6.41
2 | Cc1nc(-n2nccn2)c(C#N)cc1NC(=O)c1cnn(-c2cncc3c(F)cccc23)c1C(F)(F)F [Cpd 124, N-(5-cyano-2-methyl-6-(2H-1,2,3-triazol-2-yl)pyridin-3-yl)-1-(8-fluoroisoquinolin-4-yl)-5-(trifluoromethyl)-1H-pyrazole-4-carboxamide] | 7.82 | 6.01 | 6.23 | 7.70 | 7.68
3 | N#Cc1cc(NC(=O)c2cnn(-c3ccnc4sccc34)c2C(F)(F)F)cnc1-n1nccn1 [Cpd 126, N-(5-cyano-6-(2H-1,2,3-triazol-2-yl)pyridin-3-yl)-1-(thieno[2,3-b]pyridin-4-yl)-5-(trifluoromethyl)-1H-pyrazole-4-carboxamide] | 7.37 | 6.10 | 6.87 | 7.82 | 7.68
4 | [2H]c1ccc2c(-n3ncc(C(=O)Nc4cnc(-n5nccn5)c(C#N)c4)c3C(F)(F)F)cccc2n1 [Cpd 130, N-(5-cyano-6-(2H-1,2,3-triazol-2-yl)pyridin-3-yl)-1-(2-D-quinolin-5-yl)-5-(trifluoromethyl)-1H-pyrazole-4-carboxamide] | 6.78 | 5.46 | 6.38 | 7.77 | 6.67
5 | [2H]c1ccc2c(-n3ncc(C(=O)Nc4cnc(-n5nccn5)c(Cl)c4)c3C(F)(F)F)cccc2n1 [Cpd 131, N-(5-chloro-6-(2H-1,2,3-triazol-2-yl)pyridin-3-yl)-1-(2-Dquinolin-5-yl)-5-(trifluoromethyl)-1H-pyrazole-4-carboxamide] | 7.68 | 5.58 | 6.58 | 7.77 | 7.25
6 | N#Cc1cc(NC(=O)c2cnn(-c3cccc4ncccc34)c2C(F)(F)F)ccc1-n1nccn1 [Cpd 133, N-(3-cyano-4-(2H-1,2,3-triazol-2-yl)phenyl)-1-(quinolin-5-yl)-5-(trifluoromethyl)-1H-pyrazole-4-carboxamide] | 7.27 | 5.48 | 6.56 | 7.72 | 6.90
7 | Nc1cnn(-c2ncc(NC(=O)c3cnn(-c4cccc5c(=O)[nH]ccc45)c3C(F)(F)F)cc2Cl)n1 [Cpd 134, N-(6-(4-amino-2H-1,2,3-triazol-2-yl)-5-chloropyridin-3-yl)-1-(1-oxo-1,2-dihydroisoquinolin-5-yl)-5-(trifluoromethyl)-1H-pyrazole-4-carboxamide] | 7.34 | 4.70 | 5.99 | 7.70 | 7.24
8 | O=C(Nc1cnc(-n2ncc(CO)n2)c(Cl)c1)c1cnn(-c2cccc3ncccc23)c1C(F)(F)F [Cpd 136, N-(5-chloro-6-(4-(hydroxymethyl)-2H-1,2,3-triazol-2-yl)pyridin-3-yl)-1-(quinolin-5-yl)-5-(trifluoromethyl)-1H-pyrazole-4-carboxamide] | 7.51 | 5.64 | 6.38 | 7.68 | 7.35
9 | N#Cc1cc(NC(=O)c2cnn(-c3ccnc4ccccc34)c2C(F)(F)F)cnc1-n1nccn1 [Cpd 138, N-(5-cyano-6-(2H-1,2,3-triazol-2-yl)pyridin-3-yl)-1-(quinolin-4-yl)-5-(trifluoromethyl)-1H-pyrazole-4-carboxamide] | 6.90 | 5.60 | 6.35 | 7.64 | 6.61
10 | N#Cc1cc(NC(=O)c2cnn(-c3ncnn4cccc34)c2C(F)(F)F)cnc1-n1nccn1 [Cpd 140, N-(5-cyano-6-(2H-1,2,3-triazol-2-yl)pyridin-3-yl)-1-(pyrrolo[2,1-f][1,2,4]triazin-4-yl)-5-(trifluoromethyl)-1H-pyrazole-4-carboxamide] | 7.55 | 5.27 | 5.93 | 7.62 | 7.14
11 | O=C(Nc1cnc(-n2nccn2)c(Cl)c1)c1cnn(-c2nccn3nccc23)c1C(F)(F)F [Cpd 141, N-(5-chloro-6-(2H-1,2,3-triazol-2-yl)pyridin-3-yl)-1-(pyrazolo[1,5-a]pyrazin-4-yl)-5-(trifluoromethyl)-1H-pyrazole-4-carboxamide] | 7.41 | 5.22 | 6.30 | 7.60 | 7.29
12 | N#Cc1cc(NC(=O)c2cnn(-c3ncnc4sccc34)c2C(F)(F)F)cnc1-n1nccn1 [Cpd 142, N-(5-cyano-6-(2H-1,2,3-triazol-2-yl)pyridin-3-yl)-1-(thieno[2,3-d]pyrimidin-4-yl)-5-(trifluoromethyl)-1H-pyrazole-4-carboxamide] | 7.77 | 6.08 | 6.42 | 7.59 | 6.97
13 | N#Cc1cc(NC(=O)c2cnn(-c3nccc4ccsc34)c2C(F)(F)F)cnc1-n1nccn1 [Cpd 143, N-(5-cyano-6-(2H-1,2,3-triazol-2-yl)pyridin-3-yl)-1-(thieno[2,3-c]pyridin-7-yl)-5-(trifluoromethyl)-1H-pyrazole-4-carboxamide] | 7.25 | 5.02 | 6.37 | 7.59 | 7.01
14 | NC(=O)c1cnn(-c2ncc(NC(=O)c3cnn(-c4cccc5ncccc45)c3C(F)(F)F)cc2Cl)n1 [Cpd 144, 2-(3-chloro-5-(1-(quinolin-5-yl)-5-(trifluoromethyl)-1H-pyrazole-4-carboxamido)pyridin-2-yl)-2H-1,2,3-triazole-4-carboxamide] | 7.31 | 5.59 | 6.32 | 7.55 | 7.28
15 | N#Cc1cc(NC(=O)c2cnn(-c3cncc4ncccc34)c2C(F)(F)F)cnc1-n1nccn1 [Cpd 145, N-(5-cyano-6-(2H-1,2,3-triazol-2-yl)pyridin-3-yl)-1-(1,7-naphthyridin-5-yl)-5-(trifluoromethyl)-1H-pyrazole-4-carboxamide] | 7.33 | 5.34 | 6.20 | 7.55 | 6.90
16 | O=C(Nc1cnc(-n2nccn2)c(C(F)(F)F)c1)c1cnn(-c2cccc3ncccc23)c1C(F)(F)F [Cpd 146, N-(6-(2H-1,2,3-triazol-2-yl)-5-(trifluoromethyl)pyridin-3-yl)-1-(quinolin-5-yl)-5-(trifluoromethyl)-1H-pyrazole-4-carboxamide] | 6.88 | 5.99 | 6.47 | 7.49 | 6.48
17 | O=C(Nc1cnc(-n2nccn2)c(Cl)c1)c1cnn(-c2nccn3cccc23)c1C(F)(F)F [Cpd 147, N-(5-chloro-6-(2H-1,2,3-triazol-2-yl)pyridin-3-yl)-1-(pyrrolo[1,2-a]pyrazin-1-yl)-5-(trifluoromethyl)-1H-pyrazole-4-carboxamide] | 7.07 | 4.94 | 6.02 | 7.52 | 6.70
18 | N#Cc1cc(NC(=O)c2cnn(-c3nccn4cccc34)c2C(F)(F)F)cnc1-n1nccn1 [Cpd 148, N-(5-cyano-6-(2H-1,2,3-triazol-2-yl)pyridin-3-yl)-1-(pyrrolo[1,2-a]pyrazin-1-yl)-5-(trifluoromethyl)-1H-pyrazole-4-carboxamide] | 6.95 | 5.42 | 6.16 | 7.49 | 6.98
19 | Cn1nnc(-c2ncc(NC(=O)c3cnn(-c4cccc5ncccc45)c3C(F)(F)F)cc2C#N)n1 [Cpd 149, N-(5-cyano-6-(2-methyl-2H-tetrazol-5-yl)pyridin-3-yl)-1-(quinolin-5-yl)-5-(trifluoromethyl)-1H-pyrazole-4-carboxamide] | 5.58 | 5.36 | 6.12 | 7.54 | 6.04
20 | N#Cc1cc(NC(=O)c2cnn(-c3ccnc4ccoc34)c2C(F)(F)F)cnc1-n1nccn1 [Cpd 150, N-(5-cyano-6-(2H-1,2,3-triazol-2-yl)pyridin-3-yl)-1-(furo[3,2-b]pyridin-7-yl)-5-(trifluoromethyl)-1H-pyrazole-4-carboxamide] | 6.75 | < 5.10 | 6.55 | 8.10 | 6.34
21 | N#Cc1cc(NC(=O)c2cnn(-c3cnc(N)c4ccccc34)c2C(F)(F)F)cnc1-n1nccn1 [Cpd 156, 1-(1-aminoisoquinolin-4-yl)-N-(5-cyano-6-(2H-1,2,3-triazol-2-yl)pyridin-3-yl)-5-(trifluoromethyl)-1H-pyrazole-4-carboxamide] | 5.63 | 5.28 | 6.11 | 7.66 | 5.60
